Assay results published in patent US20230301893A1, “Hair Growth and Scalp Preparations” (priority 2020, published 2023).
No end group written: not given here.

What was measured:
[1] = system: normal human vascular endothelial cells (NHVEC); assay: Boyden chamber migration assay; type: cell-based; conditions: for cell migration over migration in the presence of media alone / migration response compared to three positive controls (VEGF, PDGF, FGF): 100 ng/ml; for Cell Number per HPF, Chamber 1 / Cell Number per HPF, Chamber 2 / Cell Number per HPF, Chamber 3 / Cell Number per HPF, Mean: 5×10^4 cells per well
Protocol: The effects of TB4 and TA1 on endothelial cell migration were determined. To investigate the possibility that these peptides effect the migration of normal human vascular endothelial cells (NHVEC) in vitro, a Boyden chamber migration assay was performed.
In the experiments of Table 1 and FIG. 1, normal human microvesicular endothelial cells are used at 5×10^4 cells per well. The wells are coated with 100 µg/ml […] Type IV.

endothelial cells = assay: MTT (tetrazolium) endothelial cell proliferation assay; type: cell-based; conditions: 10 ng/ml; 4 hours and 24 hours tested
Protocol: The effects of TB4 and TA1 on endothelial cell proliferation were determined using a MTT (tetrazolium) assay. The results are shown in FIG. 2 for 4 hours and 24 hours and for three concentrations of these peptides, 10 ng/ml, 100 ng/ml, and 1000 ng/ml. […] At a concentration of 10 ng/ml, TB4 and TA1 maximally stimulated cell proliferation approximately 2-fold and 3-fold over that of the control, respectively.

[2] = Isoelectric point of the peptide; type: physicochemical

## Ac-ANKGQAPGEAMKPSFLKEKKEVVERSKEEEGPAKMNLVIEMPKD (Ac-ANKGQAPGEAMKPSFLKEKKEVVERSKEEEGPAKMNLVIEMPKD) [TB4]
[1]
  cell migration over migration in the presence of media alone: significantly enhanced
  migration response compared to three positive controls (VEGF, PDGF, FGF): heightened responses

## Ac-SDAAVDTSSEITTKDLKEKKEVVEEAEN (Ac-SDAAVDTSSEITTKDLKEKKEVVEEAEN) [TA1, may be derived by cleavage of thymosin]
[1]; 0.1 µg/ml
  Cell Number per HPF, Chamber 1: 38 per HPF
  Cell Number per HPF, Chamber 2: 45 per HPF
  Cell Number per HPF, Chamber 3: 33 per HPF
  Cell Number per HPF, Mean: 39 per HPF
[1]
  cell migration over migration in the presence of media alone: significantly enhanced
  migration response compared to three positive controls (VEGF, PDGF, FGF): heightened responses
[1]; 0.5 µg/ml
  Cell Number per HPF, Chamber 1: 52 per HPF
  Cell Number per HPF, Chamber 2: 53 per HPF
  Cell Number per HPF, Chamber 3: 57 per HPF
  Cell Number per HPF, Mean: 54 per HPF
[1]; 1 µg/ml
  Cell Number per HPF, Chamber 1: 64 per HPF
  Cell Number per HPF, Chamber 2: 69 per HPF
  Cell Number per HPF, Chamber 3: 43 per HPF
  Cell Number per HPF, Mean: 59 per HPF
[1]; 5 µg/ml
  Cell Number per HPF, Chamber 1: 35 per HPF
  Cell Number per HPF, Chamber 2: 64 per HPF
  Cell Number per HPF, Chamber 3: 72 per HPF
  Cell Number per HPF, Mean: 57 per HPF
[1]; 10 µg/ml
  Cell Number per HPF, Chamber 1: 51 per HPF
  Cell Number per HPF, Chamber 2: 55 per HPF
  Cell Number per HPF, Chamber 3: 66 per HPF
  Cell Number per HPF, Mean: 57 per HPF
[1]; dose response
  concentration of maximal effect on migration: 100 ng/mL
Endothelial cells
  maximal stimulation of cell proliferation over that of the control: ~3 fold
[2]
  isoelectric point: 4.1
